The results in this text go back to ChEMBL document CHEMBL1150036, “Functionalized aliphatic P2/P2 analogs of HIV-1 protease inhibitor DMP323” (Bioorg Med Chem Lett, 1997).

For orientation: IC90 means the point of the concentration-response curve where the effect stands at 90%. Usually Ki stands for a dissociation constant, usually derived from enzyme kinetics or from competition with a known ligand. A low value points to a stronger hold on the target.

Calls of active or inactive are those of the source. The rule behind the calls is not given here.

Assay [1] deals with MT2. Briefly: Antiviral activity assessed in a cell based assay measuring the inhibition of viral RNA production in HIV-1-infected MT-2 cells at concentrations of up to 50 ug/mL; not active. To be noted: Homo sapiens. Type of assay: functional.
The target in assay [2] is Human immunodeficiency virus type 1 protease (Human immunodeficiency virus 1, UniProt Q72874). Briefly: Inhibitory activity against HIV-1 protease.
Assay [3] has as its system Human immunodeficiency virus 1. The experiment in a line: Inhibition of viral RNA production in HIV-1-infected MT-2 cells. Type of assay: functional. The note with it: Human immunodeficiency virus 1, MT2.

`COCCCCCN1C(=O)N(CCCCCOC)[C@H](Cc2ccccc2)[C@H](O)[C@@H](O)[C@H]1Cc1ccccc1`: the IC90 result in assay [1] is “inactive”. Besides, the affinity in assay [2] corresponds to a Ki of 96 nM.

`CCOC(=O)c1cccc(CN2C(=O)N(CCCCCO)[C@H](Cc3ccccc3)[C@H](O)[C@@H](O)[C@H]2Cc2ccccc2)c1` returned an inhibition constant (Ki) in assay [2] of 0.72 nM. In addition, the IC90 in assay [3] was determined as 365 nM.

As for `CNC(=O)NCCCCCN1C(=O)N(CCCCCNC(=O)NC)[C@H](Cc2ccccc2)[C@H](O)[C@@H](O)[C@H]1Cc1ccccc1`, the IC90 entry in assay [1] is “inactive”. This molecule also returned an inhibition constant (Ki) in assay [2] of 270 nM.

In the case of `O=C(NCCCCCN1C(=O)N(CCCCCNC(=O)c2ccccc2)[C@H](Cc2ccccc2)[C@H](O)[C@@H](O)[C@H]1Cc1ccccc1)c1ccccc1`, the IC90 entry in assay [1] is “inactive”. Affinity in assay [2] was put at a Ki of 59 nM.

For `O=C1N(CCCO)[C@H](Cc2ccccc2)[C@H](O)[C@@H](O)[C@@H](Cc2ccccc2)N1CCCO`, in assay [1], the IC90 result was “inactive”. The molecule further displayed a Ki in assay [2] of 51 nM.

`O=C1N(CCCCCCCO)[C@H](Cc2ccccc2)[C@H](O)[C@@H](O)[C@@H](Cc2ccccc2)N1CCCCCCCO` came in with an inhibition constant (Ki) in assay [2] of 34 nM. For the same molecule, in assay [3], it took 9010 nM to reach the 90% level (IC90).

Turning to `O=C1N(CCCCCCO)[C@H](Cc2ccccc2)[C@H](O)[C@@H](O)[C@@H](Cc2ccccc2)N1CCCCCCO`, the Ki in assay [2] is 0.47 nM. This molecule also had a 90% effect concentration (IC90) in assay [3] of 1510 nM.

For `O=C(NCCCCCN1C(=O)N(CCCCCNC(=O)c2ccncc2)[C@H](Cc2ccccc2)[C@H](O)[C@@H](O)[C@H]1Cc1ccccc1)c1ccncc1`, in assay [2], the affinity, expressed as Ki, was 16 nM. In addition, the IC90 in assay [3] came out at 9900 nM.

In turn, `O=C1N(CCCCCO)[C@H](Cc2ccccc2)[C@H](O)[C@@H](O)[C@@H](Cc2ccccc2)N1CC1CC1` returned an inhibition constant (Ki) in assay [2] of 0.99 nM. Moreover, in assay [3], the 90% effect level (IC90) was put at 814 nM.

`O=C1N(CCCCCO)[C@H](Cc2ccccc2)[C@H](O)[C@@H](O)[C@@H](Cc2ccccc2)N1Cc1ccc(CO)cc1` displayed a Ki in assay [2] of 0.1 nM. In assay [3], this molecule came in with an IC90 of 108 nM.

Take `O=C1N(CCCCCCO)[C@H](Cc2ccccc2)[C@H](O)[C@@H](O)[C@@H](Cc2ccccc2)N1Cc1ccc2ccccc2c1`: the affinity in assay [2], expressed as Ki, was 1.7 nM. This molecule gave a concentration for an effect of 90% (IC90) in assay [3] of 264 nM.

With `O=C(NCCCCCN1C(=O)N(CCCCCNC(=O)c2cccc(F)c2)[C@H](Cc2ccccc2)[C@H](O)[C@@H](O)[C@H]1Cc1ccccc1)c1cccc(F)c1`, the affinity in assay [2], expressed as Ki, was 14 nM. The molecule also yielded an IC90 in assay [3] of 8770 nM.

Consider `COC(=O)CCCCCN1C(=O)N(CCCCCC(=O)OC)[C@H](Cc2ccccc2)[C@H](O)[C@@H](O)[C@H]1Cc1ccccc1`, for which, in assay [2], the inhibition constant (Ki) amounted to 29 nM. For the same molecule, the IC90 in assay [3] was 30900 nM.

For `CC(=O)NCCCCCN1C(=O)N(CCCCCNC(C)=O)[C@H](Cc2ccccc2)[C@H](O)[C@@H](O)[C@H]1Cc1ccccc1`, the IC90 entry in assay [1] was “inactive”. For the same molecule, the Ki in assay [2] was found to be 350 nM.

For `NCCCCCN1C(=O)N(CCCCCN)[C@H](Cc2ccccc2)[C@H](O)[C@@H](O)[C@H]1Cc1ccccc1`, in assay [1], the IC90 result was “inactive”. Also, the Ki in assay [2] was determined as 1250 nM.

As for `O=C1N(CCCCO)[C@H](Cc2ccccc2)[C@H](O)[C@@H](O)[C@@H](Cc2ccccc2)N1CCCCO`, the affinity in assay [2] corresponds to a Ki of 42 nM. The same molecule came in with an IC90 in assay [3] of 22700 nM.

`O=C1N(CCCCCO)[C@H](Cc2ccccc2)[C@H](O)[C@@H](O)[C@@H](Cc2ccccc2)N1CCCCCO` displayed a Ki in assay [2] of 1.4 nM. Moreover, in assay [3], the IC90 came out at 953 nM.

`O=C(Cc1cccnc1)NCCCCCN1C(=O)N(CCCCCNC(=O)Cc2cccnc2)[C@H](Cc2ccccc2)[C@H](O)[C@@H](O)[C@H]1Cc1ccccc1` came in with a Ki in assay [2] of 8.9 nM. This molecule showed an IC90 in assay [3] of 3130 nM.

With `O=C1N(CCCCCO)[C@H](Cc2ccccc2)[C@H](O)[C@@H](O)[C@@H](Cc2ccccc2)N1Cc1cccc(CO)c1`, in assay [2], the affinity, expressed as Ki, was 0.058 nM. This molecule gave an IC90 in assay [3] of 76 nM.

For `O=C(O)CCCCCN1C(=O)N(CCCCCC(=O)O)[C@H](Cc2ccccc2)[C@H](O)[C@@H](O)[C@H]1Cc1ccccc1`, the IC90 entry in assay [1] is “inactive”. Also, in assay [2], the Ki stood at 0.24 nM.

Take `O=C1N(CCCCCO)[C@H](Cc2ccccc2)[C@H](O)[C@@H](O)[C@@H](Cc2ccccc2)N1Cc1cccc(O)c1`: the affinity in assay [2], expressed as Ki, was 0.081 nM. In addition, the IC90 in assay [3] amounted to 36 nM.

Take `CS(=O)(=O)NCCCCCN1C(=O)N(CCCCCNS(C)(=O)=O)[C@H](Cc2ccccc2)[C@H](O)[C@@H](O)[C@H]1Cc1ccccc1`: the IC90 entry in assay [1] is “inactive”. Further, the affinity in assay [2] corresponds to a Ki of 270 nM.

In assay [2], `O=C1N(CCCCCO)[C@H](Cc2ccccc2)[C@H](O)[C@@H](O)[C@@H](Cc2ccccc2)N1Cc1ccccc1` returned an inhibition constant Ki of 0.68 nM. Besides, in assay [3], the IC90 came to 398 nM.

On to `O=C(NCCCCCN1C(=O)N(CCCCCNC(=O)c2ccc(F)cc2)[C@H](Cc2ccccc2)[C@H](O)[C@@H](O)[C@H]1Cc1ccccc1)c1ccc(F)cc1`, for which, in assay [1], the IC90 entry was “inactive”. In assay [2], this molecule had an inhibitory constant (Ki) of 18 nM.

As to `O=C1N(CCCCCCCCO)[C@H](Cc2ccccc2)[C@H](O)[C@@H](O)[C@@H](Cc2ccccc2)N1CCCCCCCCO`, affinity in assay [2] was put at a Ki of 500 nM. The molecule further yielded a concentration for an effect of 90% (IC90) in assay [3] of 17200 nM.

In the case of `NCCCCN1C(=O)N(CCCCN)[C@H](Cc2ccccc2)[C@H](O)[C@@H](O)[C@H]1Cc1ccccc1`, the IC90 result in assay [1] is “inactive”. The same molecule yielded a Ki in assay [2] of 1250 nM.

For `O=C1N(CCCCCO)[C@H](Cc2ccccc2)[C@H](O)[C@@H](O)[C@@H](Cc2ccccc2)N1Cc1ccc2ccccc2c1`, the inhibitory constant (Ki) in assay [2] was determined as 0.24 nM. The same molecule came in with an IC90 in assay [3] of 199 nM.
